Source: EP4211126B1, “PHOTOCHEMICAL SYNTHESIS OF LOW PARTICLE SIZE MONODISPERSE GOLD NANOPARTICLES, LOADING WITH CANCER DRUG, AND DETERMINATION OF CYTOTOXIC ACTIVITY OF THE SAME” (Yildiz Teknik Universitesi, priority 2020, dated 2022)

Test system: acute promyelocytic leukemia (HL-60) cells
Assay: MTT colorimetric cytotoxicity test
Format: cell-based
Details: 72 hours of incubation, compared with DOXO in free form
Description: MTT (3- (4,5-dimethylthiazol-2-yl) -2,5-diphenyl-2H-tetrazolium bromide) colorimetric test allows the quantitation of living cells whose mitochondrial activity is maintained in the culture medium. […] P<0.05 was considered significant.
According to MTT experiments, after 72 hours of incubation, the effect of DOXO in free form, i.e., not loaded on AuNps, as well as the DOXO-loaded AuNps was investigated for acute promyelocytic leukemia (HL-60) and chronic myeloid leukemia (K562) cells, and the results are given in Figure 5 and Figure 6, respectively.

Question: With COc1cccc2c1C(=O)c1c(O)c3c(c(O)c1C2=O)C[C@@](O)(C(=O)CO)C[C@@H]3O[C@H]1C[C@H](N)[C@H](O)[C@H](C)O1 [DOXO, Doxorubicin] as the compound, how does the “cytotoxic effect (cell viability)” value read?
Answer: The value was “should be used in higher amounts in order to have a similar cytotoxic effect”.
